How the values were obtained:
[1] = system: Aspergillus niger (ATCC 12845); experiment: Antifungal activity, agar plate growth inhibition; type: cell-based; settings: 14 days
Description: (§1) Dilutions of the sterile solutions were prepared and added to liquified potato dextrose agar (Difco) to yield final concentrations of 100, 10 and 1 μg/ml. The agar, containing the appropriate organotin compound, was poured into sterile petri dishes and allowed to solidify over night. The agar surface was inoculated centrally with a 2 mm^2 portion of the growth from a ten-day-old culture of each fungus of the group consisting of Aspergillus niger, Chaetomium globosum, Cladosporium carpophilum, Fusarium moniliforme, Myrotheium verrucaria, Penicillium notatum, Rhizopus stolonifer, Trichoderma viride and Trichophyton mentagrophytes, or from a two-day-old culture of Saccharomyces cerevisiae. Inoculated plates were incubated for 14 days and observations of growth inhibition were made by measuring the diameters of the colonies present on the agar surface.
(§2) A solvent was included in all evaluations, as were growth controls for all fungal species.
(§3) The following compounds were tested for comparative purposes: [drawing 6] These compounds were tested for antifungal activity in the same manner as the triorganotin 5-nitro-2-furoates of the present invention.

[2] = system: Chaetomium globosum (ATCC 6205); experiment: Antifungal activity, agar plate growth inhibition; type: cell-based; settings: 14 days
Description: as §1, §2, §3

[3] = system: Fusarium moniliforme (ATCC 10052); experiment: Antifungal activity, agar plate growth inhibition; type: cell-based; settings: 14 days
Description: as §1, §2, §3

[4] = system: Myrothecium verrucaria (ATCC 9095); experiment: Antifungal activity, agar plate growth inhibition; type: cell-based; settings: 14 days
Description: as §1, §2, §3

[5] = system: Penicillium notatum (ATCC 9179); experiment: Antifungal activity, agar plate growth inhibition; type: cell-based; settings: for growth inhibition: 14 days
Description: as §1, §2, §3

[6] = system: Rhizopus stolonifer (ATCC 10404); experiment: Antifungal activity, agar plate growth inhibition; type: cell-based; settings: 14 days
Description: as §1, §2, §3

[7] = system: Saccharomyces cerevisiae (ATCC 9896); experiment: Antifungal activity, agar plate growth inhibition; type: cell-based; settings: 14 days
Description: as §1, §2, §3

[8] = system: Trichoderma viride (ATCC 8678); experiment: Antifungal activity, agar plate growth inhibition; type: cell-based; settings: 14 days
Description: as §1, §2, §3

[9] = system: Trichophyton mentagrophytes (ATCC 9129); experiment: Antifungal activity, agar plate growth inhibition; type: cell-based; settings: 14 days
Description: as §1, §2, §3

[10] = system: Cladosporium carpophilium (ATCC 12117); experiment: Antifungal activity, agar plate growth inhibition; type: cell-based, Cladosporium carpophilum; settings: for growth inhibition: 14 days
Description: as §1, §2, §3

Escherichia coli = experiment: Antibacterial activity, agar growth inhibition; type: cell-based; settings: for growth inhibition: Gram-negative, 24 hours at 37° C.
Description: (§4) The agar was also needed with a 1:100 dilution of an 18-hour old culture of the desired bacterial species in sterile distilled water. The plates were incubated for 24 hours at 37° C. with each bacterial strain. Observations of bacterial growth inhibition were made following the appropriate incubation period.
(§5) A solvent control was included in all evaluations, as were growth controls for all bacteria species.
(§6) These compounds were tested for antibacterial activity in the same manner as the triorganotin 5-nitro-2-furoates of the present invention.
(§7) All of the bacteria tested were obtained from the culture collection of the Department of Biological Sciences, St. John's University.

Pseudomonas aeruginosa = experiment: Antibacterial activity, agar growth inhibition; type: cell-based; settings: for growth inhibition: Gram-negative, 24 hours at 37° C.
Description: as §4, §5, §6, §7

Staphylococcus aureus = experiment: Antibacterial activity, agar growth inhibition; type: cell-based; parameters: key to growth inhibition: -: no inhibition of growth; +: partial inhibition; 2+: complete inhibition; settings: Gram-positive, 24 hours at 37° C.
Description: (§8) The antibacterial activity of Compounds A-E was investigated by means of incorporating the compounds into sterile tryptic soy agar (Difco) at levels of 100, 10, and 1 μg/ml. The agar was also […] with a 1:100 dilution of an 18-hour old culture of the desired bacterial species in sterile distilled water. The plates were incubated for 24 hours at 37° C. with each bacterial strain. Observations of bacterial growth inhibition were made following the appropriate incubation period.
as §5
(§9) Comparative compounds 1-5 above were employed for comparison purposes. These compounds were tested for antibacterial activity in the same manner as the triorganotin 5-nitro-2-furoates of the present invention.
as §7
(§10) The ability of Compound B to inhibit the growth of other Gram-positive bacteria, using the same test procedures as described for the antibacterial activity determined in Table III above, is illustrated in Table IV below.

Bacillus subtilis = experiment: Antibacterial activity, agar growth inhibition; type: cell-based; parameters: key: -: no inhibition of growth; +: partial inhibition; 2+: complete inhibition; settings: Gram-positive; 1 μg/ml; 24 hours at 37° C.
Description: as §8, §5, §9, §7, §10

Compound: Tri(2-phenyl-2,2-dimethylethyl)tin 5-nitro-2-furoate [Compound D]
- growth inhibition ([1]; 1 μg/ml): -
- growth inhibition ([1]; 10 μg/ml): -
- growth inhibition ([1]; 100 μg/ml): -
- growth inhibition ([2]; 1 μg/ml): -
- growth inhibition ([2]; 10 μg/ml): +
- growth inhibition ([2]; 100 μg/ml): +
- growth inhibition ([3]; 1 μg/ml): -
- growth inhibition ([3]; 10 μg/ml): -
- growth inhibition ([3]; 100 μg/ml): -
- growth inhibition ([4]; 1 μg/ml): -
- growth inhibition ([4]; 10 μg/ml): +
- growth inhibition ([4]; 100 μg/ml): +
- growth inhibition ([5]; 1 μg/ml): -
- growth inhibition ([5]; 10 μg/ml): +
- growth inhibition ([5]; 100 μg/ml): +
- growth inhibition ([6]; 1 μg/ml): -
- growth inhibition ([6]; 10 μg/ml): -
- growth inhibition ([6]; 100 μg/ml): -
- growth inhibition ([7]; 1 μg/ml): -
- growth inhibition ([7]; 10 μg/ml): -
- growth inhibition ([7]; 100 μg/ml): -
- growth inhibition ([8]; 1 μg/ml): -
- growth inhibition ([8]; 10 μg/ml): -
- growth inhibition ([8]; 100 μg/ml): -
- growth inhibition ([9]; 1 μg/ml): +
- growth inhibition ([9]; 10 μg/ml): +
- growth inhibition ([9]; 100 μg/ml): +
- growth inhibition ([10]; 1 μg/ml): -
- growth inhibition ([10]; 10 μg/ml): -
- growth inhibition ([10]; 100 μg/ml): -
- growth inhibition (Escherichia coli; 1 μg/ml): -
- growth inhibition (Escherichia coli; 10 μg/ml): -
- growth inhibition (Escherichia coli; 100 μg/ml): -
- growth inhibition (Pseudomonas aeruginosa; 1 μg/ml): -
- growth inhibition (Pseudomonas aeruginosa; 10 μg/ml): -
- growth inhibition (Pseudomonas aeruginosa; 100 μg/ml): -
- growth inhibition (Staphylococcus aureus; 1 μg/ml): -

Compound: CCOC(=Nc1ccccc1)[S][Sn]([c]1ccccc1)([c]1ccccc1)[c]1ccccc1 [compound 4, Ethyl N--phenyl-S--(triphenylstannyl)iso-thiocarbamate, reference compound]
- growth inhibition ([1]; 1 μg/ml): +
- growth inhibition ([1]; 10 μg/ml): +
- growth inhibition ([1]; 100 μg/ml): +
- growth inhibition ([2]; 1 μg/ml): +
- growth inhibition ([2]; 10 μg/ml): +
- growth inhibition ([2]; 100 μg/ml): 2+
- growth inhibition ([3]; 1 μg/ml): +
- growth inhibition ([3]; 10 μg/ml): +
- growth inhibition ([3]; 100 μg/ml): +
- growth inhibition ([4]; 1 μg/ml): +
- growth inhibition ([4]; 10 μg/ml): +
- growth inhibition ([4]; 100 μg/ml): +
- growth inhibition ([5]; 1 μg/ml): +
- growth inhibition ([5]; 10 μg/ml): +
- growth inhibition ([5]; 100 μg/ml): +
- growth inhibition ([6]; 1 μg/ml): +
- growth inhibition ([6]; 10 μg/ml): +
- growth inhibition ([6]; 100 μg/ml): +
- growth inhibition ([7]; 1 μg/ml): -
- growth inhibition ([7]; 10 μg/ml): +
- growth inhibition ([7]; 100 μg/ml): +
- growth inhibition ([8]; 1 μg/ml): -
- growth inhibition ([8]; 10 μg/ml): +
- growth inhibition ([8]; 100 μg/ml): +
- growth inhibition ([9]; 1 μg/ml): +
- growth inhibition ([9]; 10 μg/ml): 2+
- growth inhibition ([9]; 100 μg/ml): 2+
- growth inhibition ([10]; 1 μg/ml): +
- growth inhibition ([10]; 10 μg/ml): +
- growth inhibition ([10]; 100 μg/ml): 2+
- growth inhibition (in words) (Escherichia coli; 100 μg/ml): partially
- growth inhibition (Escherichia coli; 1 μg/ml): -
- growth inhibition (Escherichia coli; 10 μg/ml): -
- growth inhibition (Bacillus subtilis): -

Compound: Trimethyltin 5-nitro-2-furoate [Compound E]
- growth inhibition ([1]; 1 μg/ml): -
- growth inhibition ([1]; 10 μg/ml): +
- growth inhibition ([1]; 100 μg/ml): +
- growth inhibition ([2]; 1 μg/ml): -
- growth inhibition ([2]; 10 μg/ml): +
- growth inhibition ([2]; 100 μg/ml): +
- growth inhibition ([3]; 1 μg/ml): -
- growth inhibition ([3]; 10 μg/ml): +
- growth inhibition ([3]; 100 μg/ml): +
- growth inhibition ([4]; 1 μg/ml): +
- growth inhibition ([4]; 10 μg/ml): +
- growth inhibition ([4]; 100 μg/ml): 2+
- growth inhibition ([5]; 1 μg/ml): -
- growth inhibition ([5]; 10 μg/ml): +
- growth inhibition (in words) ([5]; 100 μg/ml): completely inhibited
- growth inhibition ([5]; 100 μg/ml): 2+
- growth inhibition ([6]; 1 μg/ml): +
- growth inhibition ([6]; 10 μg/ml): +
- growth inhibition ([6]; 100 μg/ml): +
- growth inhibition ([7]; 1 μg/ml): -
- growth inhibition ([7]; 10 μg/ml): -
- growth inhibition ([7]; 100 μg/ml): -
- growth inhibition ([8]; 1 μg/ml): +
- growth inhibition ([8]; 10 μg/ml): +
- growth inhibition ([8]; 100 μg/ml): +
- growth inhibition ([9]; 1 μg/ml): +
- growth inhibition ([9]; 10 μg/ml): +
- growth inhibition ([9]; 100 μg/ml): +
- growth inhibition ([10]; 1 μg/ml): +
- growth inhibition (in words) ([10]; 10 μg/ml): completely inhibited
- growth inhibition ([10]; 10 μg/ml): 2+
- growth inhibition ([10]; 100 μg/ml): 2+
- activity towards the Gram-negative bacterium (in words) (Escherichia coli): showed activity
- growth inhibition (in words) (Escherichia coli; 100 μg/ml): completely inhibited
- growth inhibition (Escherichia coli; 1 μg/ml): -
- growth inhibition (Escherichia coli; 10 μg/ml): -
- activity towards the Gram-negative bacterium (in words) (Pseudomonas aeruginosa): showed activity
- growth inhibition (Pseudomonas aeruginosa; 1 μg/ml): -
- growth inhibition (Pseudomonas aeruginosa; 10 μg/ml): -
- growth inhibition (Staphylococcus aureus; 1 μg/ml): -
- growth inhibition (Staphylococcus aureus; 10 μg/ml): -

From patent US4497806A, “Triorganotin compounds, antifungal and antibacterial compositions containing same, and method of using same” (priority 1983, dated 1985)
